Test results from patent US20240317744A1, “Bicyclic Ureas As Kinase Inhibitors” (Incyte Corporation, priority 2023, published 2024).

What was measured:
[1] = target: T1, pseudo-kinase domain (JH2, amino-acids 536-812) of human Wild Type JAK2 (Homo sapiens, UniProt O60674, F794H/W659A/W777A); test: JAK2 LanthaScreen JH2-WT Binding Assay; settings: JAK2 JH2-WT 0.145 nM, 50 nM tracer, 1 hour at 25° C.; read-out: JH2 BIND WT
T1 construct: pseudo-kinase domain (JH2, amino-acids 536-812 with 3 surface mutations W659A, W777A, F794H); His (C); purchased BPS Bioscience 79463; host or cells: baculovirus expression system
T1 sequence (O60674 536-812 W659A/W777A/F794H): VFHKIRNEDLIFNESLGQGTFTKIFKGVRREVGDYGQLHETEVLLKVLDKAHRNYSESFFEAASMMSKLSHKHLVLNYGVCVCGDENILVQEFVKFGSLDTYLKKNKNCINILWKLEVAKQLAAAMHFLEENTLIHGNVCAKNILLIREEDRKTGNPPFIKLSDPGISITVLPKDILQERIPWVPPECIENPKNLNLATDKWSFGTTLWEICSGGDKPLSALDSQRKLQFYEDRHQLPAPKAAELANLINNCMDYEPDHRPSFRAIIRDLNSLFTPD
Procedure, shortened: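 Compounds, serially diluted, were mixed with 0.145 nM JH2 domain, 50 nM tracer and 0.25 nM streptavidin-Tb cryptate, then incubated 1 hour at 25° C before LanthaScreen reading. Wells containing 2 mM ATP defined non-specific binding. Four-parameter dose-response curves gave IC50.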

[2] = target: T2, pseudo-kinase domain (JH2, amino-acids 536-812) of human V617F mutant JAK2 (Homo sapiens, UniProt O60674, F794H/V617F/W659A/W777A); test: JAK2 LanthaScreen JH2-V617F Binding Assay; settings: JAK2 JH2-V617F 0.26 nM, 50 nM tracer, 1 hour at 25° C.; read-out: JH2 BIND V617F
T2 construct: pseudo-kinase domain (JH2, amino-acids 536-812 with 3 surface mutations W659A, W777A, F794H); His (C); purchased BPS Bioscience 79498; host or cells: baculovirus expression system
T2 sequence (O60674 536-812 V617F/W659A/W777A/F794H): as the sequence (O60674 536-812 W659A/W777A/F794H) above, with V82F counted along it
Procedure, shortened: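 Binding was measured as TR-FRET displacement of 50 nM tracer from 0.26 nM biotinylated His-Avi protein, incubated one hour at 25° C; IC50 from a four-parameter fit.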

[3] = target: T3, catalytic domain (JH1, amino acids 826-1132) of human JAK2 (Homo sapiens, UniProt O60674); test: JAK2 LanthaScreen JH1 Binding Assay; settings: JAK2 JH1 1.5 nM, 50 nM tracer, 2 hours at 25° C.; read-out: JH1 BIND
T3 construct: catalytic domain (JH1, amino acids 826-1132) of human JAK2; FLAG (N); biotin (biotinylated); purchased Carna Biosciences 08-445-20N; host or cells: baculovirus expression system
T3 sequence (O60674 826-1132): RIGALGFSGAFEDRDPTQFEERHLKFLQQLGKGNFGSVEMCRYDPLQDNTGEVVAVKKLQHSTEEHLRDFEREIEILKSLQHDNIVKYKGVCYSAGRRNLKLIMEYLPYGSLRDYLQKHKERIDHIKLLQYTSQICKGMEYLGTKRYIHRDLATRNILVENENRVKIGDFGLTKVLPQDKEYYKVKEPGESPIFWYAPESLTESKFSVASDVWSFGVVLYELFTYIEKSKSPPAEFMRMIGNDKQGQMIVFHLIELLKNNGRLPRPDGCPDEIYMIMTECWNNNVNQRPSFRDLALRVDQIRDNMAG
Procedure, shortened: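 TR-FRET tracer-displacement format: compound IC50 from four-parameter curves after 2 h at 25° C. Reaction held 1.5 nM biotinylated, FLAG-tagged JH1 (aa 826-1132), 50 nM tracer, 0.5 nM Streptavidin-Tb, pH 7.5 Tris buffer; 2 mM ATP set nonspecific background.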

[4] = target: catalytic domain (JH1, amino acids 808-1132) of human JAK2 (Homo sapiens, UniProt O60674); test: JAK2 HTRF Enzyme Activity Assay; format: biochemical; settings: ATP 30 µM, 60 minutes at 25° C.; read-out: V617F ENZ 30 UM
Chain of catalytic domain (JH1, amino acids 808-1132) of human JAK2 (O60674 808-1132 limits assumed): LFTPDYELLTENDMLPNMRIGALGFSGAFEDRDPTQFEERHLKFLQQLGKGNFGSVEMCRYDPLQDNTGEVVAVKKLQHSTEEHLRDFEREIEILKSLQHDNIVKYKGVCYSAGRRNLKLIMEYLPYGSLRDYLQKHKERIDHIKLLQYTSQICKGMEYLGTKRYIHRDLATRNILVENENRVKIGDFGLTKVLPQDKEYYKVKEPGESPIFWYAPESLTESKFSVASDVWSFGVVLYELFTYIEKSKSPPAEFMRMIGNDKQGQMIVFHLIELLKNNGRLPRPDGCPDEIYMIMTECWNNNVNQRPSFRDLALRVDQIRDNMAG

SMILES	IC50 [1]	IC50 [2]	IC50 [3]	IC50 [4]
[2H]C([2H])([2H])n1c(=O)n([C@@H]2CC[C@](C)(NC(=O)C3CC3)C2)c2cc(Nc3cc(C(C)(C)O)cc(-c4ncc(Cl)s4)n3)ncc21 [Example 92, N-((1S,3R)-3-(6-((6-(5-Chlorothiazol-2-yl)-4-(2-hydroxypropan-2-yl)pyridin-2-yl)amino)-3-(methyl-d3)-2-oxo-2,3-dihydro-1H-imidazo[4,5-c]pyridin-1-yl)-1-methylcyclopentyl)cyclopropanecarboxamide]	≤ 10 nM	≤ 10 nM	> 1000 nM	> 1000 nM
[2H]C([2H])([2H])n1c(=O)n([C@@H]2CC[C@@H](NC(=O)OC)C2)c2cc(Nc3cc(C(C)(C)O)cc(-c4ncc(C(O)(C(F)(F)F)C(F)(F)F)s4)n3)ncc21 [Example 145, Methyl ((1R,3R)-3-(6-((6-(5-(1,1,1,3,3,3-hexafluoro-2-hydroxypropan-2-yl)thiazol-2-yl)-4-(2-hydroxypropan-2-yl)pyridin-2-yl)amino)-3-(methyl-d3)-2-oxo-2,3-dihydro-1H-imidazo[4,5-c]pyridin-1-yl)cyclopentyl)carbamate]	≤ 10 nM	≤ 10 nM	> 1000 nM	> 1000 nM
COC(=O)N[C@@H]1CC[C@@H](n2c(=O)n(C)c3cnc(Nc4cc(NC(=O)[C@H]5CC5(F)F)cc(C5CCOCC5)c4)cc32)C1 [Example 17, Methyl ((1R,3R)-3-(6-((3-((R)-2,2-difluorocyclopropane-1-carboxamido)-5-(tetrahydro-2H-pyran-4-yl)phenyl)amino)-3-methyl-2-oxo-2,3-dihydro-1H-imidazo[4,5-c]pyridin-1-yl)cyclopentyl)carbamate]	≤ 10 nM	≤ 10 nM	> 1000 nM	> 1000 nM
[2H]C([2H])([2H])n1c(=O)n([C@H]2C[C@H](C(C)(C)O)C2)c2cc(Nc3cc(-c4cnccc4C(F)(F)F)c4nc(C)c(-c5cnn(C(F)F)c5)n4n3)ncc21 [Example 106, 6-((3-(1-(Difluoromethyl)-1H-pyrazol-4-yl)-2-methyl-8-(4-(trifluoromethyl)pyridin-3-yl)imidazo[1,2-b]pyridazin-6-yl)amino)-1-((1r,3r)-3-(2-hydroxypropan-2-yl)cyclobutyl)-3-(methyl-d3)-1,3-dihydro-2H-imidazo[4,5-c]pyridin-2-one]	≤ 10 nM	≤ 10 nM	> 1000 nM	> 1000 nM
[2H]C([2H])([2H])n1c(=O)n([C@@H]2CC[C@@H](NC(=O)OC)C2)c2cc(Nc3cc(C(=O)N4CC5(CCN5C)C4)c4cccc(C(F)(F)F)c4n3)ncc21 [Example 3, Methyl ((1R,3R)-3-(3-(methyl-d3)-6-((4-(1-methyl-1,6-diazaspiro[3.3]heptane-6-carbonyl)-8-(trifluoromethyl)quinolin-2-yl)amino)-2-oxo-2,3-dihydro-1H-imidazo[4,5-c]pyridin-1-yl)cyclopentyl)carbamate]	≤ 10 nM	≤ 10 nM	> 1000 nM	500 to 1000 nM
COC(=O)N[C@@H]1CC[C@@H](n2c(=O)n(C)c3cnc(Nc4cccc(-c5ccc6ncccc6c5)n4)cc32)C1 [Example 9, Methyl ((1R,3R)-3-(3-methyl-2-oxo-6-((6-(quinolin-6-yl)pyridin-2-yl)amino)-2,3-dihydro-1H-imidazo[4,5-c]pyridin-1-yl)cyclopentyl)carbamate]	≤ 10 nM	≤ 10 nM	> 1000 nM	> 1000 nM
COC(=O)N[C@@H]1CC[C@@H](n2c(=O)n(C)c3cnc(Nc4ccn(-c5ccncc5)n4)cc32)C1 [Example 81, Methyl ((1R,3R)-3-(3-methyl-2-oxo-6-((1-(pyridin-4-yl)-1H-pyrazol-3-yl)amino)-2,3-dihydro-1H-imidazo[4,5-c]pyridin-1-yl)cyclopentyl)carbamate]	100 to 500 nM	100 to 500 nM	> 1000 nM	> 1000 nM
COC(=O)Nc1cc(Nc2cc3c(cn2)n(C)c(=O)n3[C@@H]2CC[C@H](F)C2)cc(-c2cnn(C)c2)c1 [Example 31, Methyl (3-((1-((1R,3S)-3-fluorocyclopentyl)-3-methyl-2-oxo-2,3-dihydro-1H-imidazo[4,5-c]pyridin-6-yl)amino)-5-(1-methyl-1H-pyrazol-4-yl)phenyl)carbamate]	10 to 100 nM	10 to 100 nM	> 1000 nM	> 1000 nM
[2H]C([2H])([2H])n1c(=O)n([C@@H]2CC[C@@H](NC(=O)OC)C2)c2cc(Nc3cc(C(=O)N4CC5CC5(O)C4)c4cccc(C(F)(F)F)c4n3)ncc21 (stereo partly drawn) [Example 10, Methyl ((1R,3R)-3-(6-((4-(1-hydroxy-3-azabicyclo[3.1.0]hexane-3-carbonyl)-8-(trifluoromethyl)quinolin-2-yl)amino)-3-(methyl-d3)-2-oxo-2,3-dihydro-1H-imidazo[4,5-c]pyridin-1-yl)cyclopentyl)carbamate]	≤ 10 nM	≤ 10 nM	500 to 1000 nM	100 to 500 nM
[2H]C([2H])([2H])n1c(=O)n([C@@H]2CC[C@@H](NC(=O)OC)C2)c2cc(Nc3cccc(C4CC4)n3)ncc21 [Example 50, Methyl ((1R,3R)-3-(6-((6-cyclopropylpyridin-2-yl)amino)-3-(methyl-d3)-2-oxo-2,3-dihydro-1H-imidazo[4,5-c]pyridin-1-yl)cyclopentyl)carbamate]	≤ 10 nM	10 to 100 nM	> 1000 nM	> 1000 nM
[2H]C([2H])([2H])n1c(=O)n([C@@H]2CC[C@@H](NC(=O)OC)C2)c2cc(Nc3cc(C(C)(C)O)cc(-c4ncc(C(C)(C)O)s4)n3)ncc21 [Example 144, Methyl ((1R,3R)-3-(6-((4-(2-hydroxypropan-2-yl)-6-(5-(2-hydroxypropan-2-yl)thiazol-2-yl)pyridin-2-yl)amino)-3-(methyl-d3)-2-oxo-2,3-dihydro-1H-imidazo[4,5-c)pyridin-1-yl)cyclopentyl)carbamate]	≤ 10 nM	≤ 10 nM	> 1000 nM	> 1000 nM
COC(=O)N[C@@H]1CC[C@@H](n2c(=O)n(C)c3cnc(Nc4cc(NC(=O)C5(F)CCOCC5)cc(-c5cccc(C#N)c5)c4)cc32)C1 [Example 2, Methyl ((1R,3R)-3-(6-((3′-cyano-5-(4-fluorotetrahydro-2H-pyran-4-carboxamido)-[1,1′-biphenyl]-3-yl)amino)-3-methyl-2-oxo-2,3-dihydro-1H-imidazo[4,5-c]pyridin-1-yl)cyclopentyl)carbamate]	≤ 10 nM	≤ 10 nM	> 1000 nM	> 1000 nM
COC(=O)N[C@@H]1CC[C@@H](n2c(=O)n(C)c3cnc(Nc4cccc(-c5ccc6[nH]nc(C)c6c5)n4)cc32)C1 [Example 7, Methyl ((1R,3R)-3-(3-methyl-6-((6-(3-methyl-1H-indazol-5-yl)pyridin-2-yl)amino)-2-oxo-2,3-dihydro-1H-imidazo[4,5-c]pyridin-1-yl)cyclopentyl)carbamate]	≤ 10 nM	10 to 100 nM	> 1000 nM	> 1000 nM
COC(=O)N[C@@H]1CC[C@@H](n2c(=O)n(C)c3cnc(Nc4ccnc(NC5CCC(F)(F)C5)n4)cc32)C1 (stereo partly drawn) [Example 83, Methyl ((1R,3R)-3-(6-((2-((3,3-difluorocyclopentyl)amino)pyrimidin-4-yl)amino)-3-methyl-2-oxo-2,3-dihydro-1H-imidazo[4,5-c]pyridin-1-yl)cyclopentyl)carbamate]	≤ 10 nM	10 to 100 nM	> 1000 nM	> 1000 nM
[2H]C([2H])([2H])n1c(=O)n([C@@H]2CC[C@@H](NC(=O)OC)C2)c2cc(Nc3cc(C(=O)N4CCOCC4)c(-c4cnn(C)c4)c(OC4CCC4)n3)ncc21 [Example 102, Methyl ((1R,3R)-3-(6-((6-cyclobutoxy-5-(1-methyl-1H-pyrazol-4-yl)-4-(morpholine-4-carbonyl)pyridin-2-yl)amino)-3-(methyl-d3)-2-oxo-2,3-dihydro-1H-imidazo[4,5-c]pyridin-1-yl)cyclopentyl)carbamate]	≤ 10 nM	≤ 10 nM	> 1000 nM	> 1000 nM
